Measured values reported in patent US20260325533A1, “CDK INHIBITOR COMPOUNDS” (ALEKSIA THERAPEUTICS, INC., priority 2023, published 2026).
pIC50: −log10 of the molar value. Read-outs that look alike come from different tables or passages of the source. One block for each compound: values may come before it.

Assays:
Format in all cases: biochemical
CDK4/CCND3 = CDK4/CCND3 (Homo sapiens, UniProt P11802); assay: CDK4 homogeneous time-resolved fluorescence (HTRF) kinase assay
Method in brief: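 CDK4/CCND3 at 1.5 nM was preincubated with compound for 20 min at 23 °C, then reacted for 60 min with 1 mM ATP and 50 nM ULight-4E-BP1 (Thr37/46) peptide. The reaction was stopped with EDTA, and phosphorylation was read by HTRF with a Eu-anti-phospho antibody. IC50 values came from 11-point half-log titrations, typically from 10 μM.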

CDK1/CCNB1 = CDK1/CCNB1 (Homo sapiens, UniProt P06493); assay: CDK1 homogeneous time-resolved fluorescence (HTRF) kinase assay
Method in brief: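 Kinase activity is measured as Lance signal (665 nm, or 665/615 nm ratio) from europium-labelled anti-phospho-Thr37/46 antibody binding ULight-4E-BP1 peptide. Reactions contain 0.5 nM enzyme, 1 mM ATP, 1% DMSO and run 60 min at 23 °C before EDTA quench.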

CDK6/CCND1 = CDK6/CCND1 (Homo sapiens, UniProt Q00534); assay: CDK6 homogeneous time-resolved fluorescence (HTRF) kinase assay
Method in brief: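 Enzyme pre-incubated 20 min at 23 °C with compound, then reacted 60 min at 23 °C with 1 mM ATP and 50 nM ULight-4E-BP1 (Thr37/46) peptide; 1 nM enzyme, 1% DMSO. EDTA-stopped, Eu-anti-phospho antibody TR-FRET read (665 nm or 665/615 ratio); 11-point half-log titration from 10 μM gave IC50.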

CDK2/CCNE1 = CDK2/CCNE1 (Homo sapiens, UniProt P24941); assay: CDK2 homogeneous time-resolved fluorescence (HTRF) kinase assay
Method in brief: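 3 nM CDK2/CCNE1 was preincubated with compound for 20 min at 23 °C in HEPES buffer (pH not stated), then reacted 60 min with 1 mM ATP and 50 nM ULight-4E-BP1 (Thr37/46) peptide. After EDTA stop, Eu-anti-phospho-4E-BP1 antibody (2 nM) was added for 60 min and TR-FRET read at 665 nm.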

[1] = CDK4/CCND, x = IC50 >250 nM, read-out: CDK4/CCND IC50 (>250 nM column)
[2] = CDK1/CCNB, x = IC50 >250 nM, read-out: CDK1/CCNB IC50 (>250 nM column)
[3] = CDK6/CCND, x = IC50 >250 nM, read-out: CDK6/CCND IC50 (>250 nM column)
[4] = CDK2/CCNE, x = IC50 25-250 nM, read-out: CDK2/CCNE IC50 (25-250 nM)
[5] = CDK2/CCNE, x = IC50 <25 nM, read-out: CDK2/CCNE IC50 (<25 nM)
[6] = >250 nM, CDK4/CCND, read-out: CDK4/CCND IC50, >250 nM
[7] = >250 nM, CDK1/CCNB, read-out: CDK1/CCNB IC50 >250 nM
[8] = >250 nM, CDK6/CCND, 1 mM ATP, read-out: CDK6/CCND IC50, >250 nM
[9] = 25-250 nM, CDK2/CCNE, read-out: CDK2/CCNE IC50, 25-250 nM
[10] = <25 nM, CDK2/CCNE, read-out: CDK2/CCNE IC50, <25 nM

Chain of CDK1/CCNB1 (P06493 whole entry): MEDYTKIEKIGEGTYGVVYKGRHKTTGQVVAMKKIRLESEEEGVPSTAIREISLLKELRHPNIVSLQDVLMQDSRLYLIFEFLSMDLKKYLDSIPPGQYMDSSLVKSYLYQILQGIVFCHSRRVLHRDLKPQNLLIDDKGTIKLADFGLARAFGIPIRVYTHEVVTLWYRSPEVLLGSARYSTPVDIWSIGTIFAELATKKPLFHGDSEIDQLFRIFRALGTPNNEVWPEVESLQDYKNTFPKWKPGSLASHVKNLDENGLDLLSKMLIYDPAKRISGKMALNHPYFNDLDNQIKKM
Chain of CDK1/CCNB1 (P14635 whole entry partner): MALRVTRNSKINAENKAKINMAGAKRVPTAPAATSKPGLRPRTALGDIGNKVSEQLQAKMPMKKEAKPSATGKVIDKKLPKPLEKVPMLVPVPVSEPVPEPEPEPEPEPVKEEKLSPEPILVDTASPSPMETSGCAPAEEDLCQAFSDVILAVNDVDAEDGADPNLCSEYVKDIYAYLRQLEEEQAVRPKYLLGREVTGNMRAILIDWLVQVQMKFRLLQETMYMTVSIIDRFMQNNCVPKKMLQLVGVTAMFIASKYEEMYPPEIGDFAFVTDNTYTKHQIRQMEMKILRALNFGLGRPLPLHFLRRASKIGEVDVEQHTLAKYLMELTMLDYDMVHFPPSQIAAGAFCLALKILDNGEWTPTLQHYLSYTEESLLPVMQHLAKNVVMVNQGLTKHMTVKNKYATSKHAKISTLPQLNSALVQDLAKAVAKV
Chain of CDK6/CCND1 (Q00534 whole entry): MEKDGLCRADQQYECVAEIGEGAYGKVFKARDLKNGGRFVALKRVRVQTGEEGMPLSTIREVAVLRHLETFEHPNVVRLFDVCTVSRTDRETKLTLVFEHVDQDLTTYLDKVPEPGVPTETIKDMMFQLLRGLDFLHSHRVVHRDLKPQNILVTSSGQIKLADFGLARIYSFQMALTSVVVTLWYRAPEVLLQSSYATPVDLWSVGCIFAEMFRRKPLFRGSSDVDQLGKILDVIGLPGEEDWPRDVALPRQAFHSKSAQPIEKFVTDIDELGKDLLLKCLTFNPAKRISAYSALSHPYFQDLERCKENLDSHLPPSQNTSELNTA
Chain of CDK6/CCND1 (P24385 whole entry partner): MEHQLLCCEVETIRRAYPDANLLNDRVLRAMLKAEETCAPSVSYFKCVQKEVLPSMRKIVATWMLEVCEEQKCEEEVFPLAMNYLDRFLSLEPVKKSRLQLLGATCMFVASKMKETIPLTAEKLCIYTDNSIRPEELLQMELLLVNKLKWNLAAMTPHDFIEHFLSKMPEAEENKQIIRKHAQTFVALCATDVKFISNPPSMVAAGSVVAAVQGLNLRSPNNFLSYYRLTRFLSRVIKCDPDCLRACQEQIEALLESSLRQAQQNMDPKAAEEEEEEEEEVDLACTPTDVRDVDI
Chain of CDK4/CCND3 (P11802 whole entry): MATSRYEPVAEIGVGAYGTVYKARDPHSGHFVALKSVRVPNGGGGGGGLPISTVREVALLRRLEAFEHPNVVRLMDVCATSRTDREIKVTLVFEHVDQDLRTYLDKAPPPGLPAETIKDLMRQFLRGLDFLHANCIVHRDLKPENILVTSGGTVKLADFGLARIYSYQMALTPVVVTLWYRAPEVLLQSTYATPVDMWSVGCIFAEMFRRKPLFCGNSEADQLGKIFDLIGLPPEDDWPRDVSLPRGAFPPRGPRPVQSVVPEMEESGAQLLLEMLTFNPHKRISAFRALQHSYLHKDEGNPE
Chain of CDK4/CCND3 (P30281 whole entry partner): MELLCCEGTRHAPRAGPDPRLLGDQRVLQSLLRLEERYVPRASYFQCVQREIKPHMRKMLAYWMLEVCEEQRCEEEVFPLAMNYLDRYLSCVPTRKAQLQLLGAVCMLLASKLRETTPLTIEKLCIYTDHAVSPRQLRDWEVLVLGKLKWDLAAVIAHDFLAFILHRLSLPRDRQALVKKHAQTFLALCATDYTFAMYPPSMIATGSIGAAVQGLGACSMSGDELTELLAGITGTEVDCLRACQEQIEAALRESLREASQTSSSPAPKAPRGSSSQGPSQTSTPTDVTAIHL

pIC50 (CDK4/CCND3; 1.5 nM CDK4/CCND3, 1 mM ATP, read-out: CDK4/CCND IC50 25-250 nM): 6.60 to 7.60
pIC50 (CDK1/CCNB1; 0.5 nM CDK1/CCNB1, 1 mM ATP, read-out: CDK1/CCNB IC50 25-250 nM): 6.60 to 7.60
pIC50 (CDK6/CCND1; 1 nM CDK6/CCND1, 1 mM ATP, read-out: CDK6/CCND IC50 25-250 nM): 6.60 to 7.60
pIC50 (CDK2/CCNE1; 3 nM CDK2/CCNE1, 1 mM ATP, read-out: CDK2/CCNE IC50 <25 nM): > 7.60
Compound: Cc1c(-c2c(C#N)ccc3cnc(Nc4ccc(S(C)(=O)=O)cc4)nc23)ccc2c1cnn2CCO [Example 962, 8-(1-(2-hydroxyethyl)-4-methyl-1H-indazol-5-yl)-2-((4-(methylsulfonyl)phenyl)amino) quinazoline-7-carbonitrile]

pIC50 (CDK4/CCND3; [6]): < 6.60
pIC50 (CDK1/CCNB1; [7]): < 6.60
pIC50 (CDK6/CCND1; [8]): < 6.60
pIC50 (CDK2/CCNE1; [9]): 6.60 to 7.60
Compound: Cc1ccc(NS(=O)(=O)c2ccc(Nc3cc4c(-c5ccc6c(cnn6CC(O)(C(F)(F)F)C(F)(F)F)c5C)nccc4cn3)cc2)nc1N1CCOCC1 [Ex 694, 4-((5-(4-methyl-1-(3,3,3-trifluoro-2-hydroxy-2-(trifluoromethyl)propyl)-1H-indazol-5-yl)-2,6-naphthyridin-3-yl)amino)-N-(5-methyl-6-morpholinopyridin-2-yl)benzenesulfonamide]

pIC50 (CDK4/CCND3; [1]): < 6.60
pIC50 (CDK1/CCNB1; [2]): < 6.60
pIC50 (CDK6/CCND1; [3]): < 6.60
pIC50 (CDK2/CCNE1; CDK2/CCNE, x = IC50 >250 nM, read-out: CDK2/CCNE IC50 (>250 nM column)): < 6.60
Compound: CC(C)(O)Cn1cc2ccc(C#Cc3nccc4cnc(Nc5ccc(S(C)(=O)=O)cc5)cc34)cc2n1 (single isomer, unassigned) [Example 577, 2-Methyl-1-(6-((7-((4-(methylsulfonyl)phenyl)amino)-2,6-naphthyridin-1-yl)ethynyl)-2H-indazol-2-yl)propan-2-ol]

pIC50 (CDK4/CCND3; [6]): < 6.60
pIC50 (CDK1/CCNB1; [7]): < 6.60
pIC50 (CDK6/CCND1; [8]): < 6.60
pIC50 (CDK2/CCNE1; [10]): > 7.60
Compound: Cc1c(-c2nccc3cnc(Nc4ccc(NS(=O)(=O)c5ccc(N6CCNCC6)cc5)cc4)cc23)ccc2c1cnn2CC(C)(C)O [Ex 767, N-(4-((5-(1-(2-hydroxy-2-methylpropyl)-4-methyl-1H-indazol-5-yl)-2,6-naphthyridin-3-yl)amino)phenyl)-4-(piperazin-1-yl)benzenesulfonamide]

pIC50 (CDK4/CCND3; [6]): < 6.60
pIC50 (CDK1/CCNB1; [7]): < 6.60
pIC50 (CDK6/CCND1; [8]): < 6.60
pIC50 (CDK2/CCNE1; [9]): 6.60 to 7.60
Compound: Cc1c(-c2nccc3cnc(Nc4cnc(O)c(N5CCNCC5)c4)cc23)ccc2c1cnn2CC(C)(C)O [Ex 888, 5-((5-(1-(2-hydroxy-2-methylpropyl)-4-methyl-1H-indazol-5-yl)-2,6-naphthyridin-3-yl)amino)-3-(piperazin-1-yl)pyridin-2-ol]

pIC50 (CDK4/CCND3; [6]): < 6.60
pIC50 (CDK1/CCNB1; [7]): < 6.60
pIC50 (CDK6/CCND1; [8]): < 6.60
pIC50 (CDK2/CCNE1; [10]): > 7.60
Compound: Cc1c(-c2nccc3cnc(NC4CCN(C(=O)c5ccccc5)C4)cc23)ccc2c1cnn2CC(C)(C)O (racemic) [Ex 885, (3-((5-(1-(2-hydroxy-2-methylpropyl)-4-methyl-1H-indazol-5-yl)-2,6-naphthyridin-3-yl)amino)pyrrolidin-1-yl)(phenyl)methanone]

pIC50 (CDK4/CCND3; [1]): < 6.60
pIC50 (CDK1/CCNB1; [2]): < 6.60
pIC50 (CDK6/CCND1; [3]): < 6.60
pIC50 (CDK2/CCNE1; [4]): 6.60 to 7.60
Compound: C=Cc1c(-c2nccc3cnc(Nc4ccc(S(C)(=O)=O)cc4)cc23)ccc2[nH]ncc12 [Example 641, N-(4-(methylsulfonyl)phenyl)-5-(4-vinyl-1H-indazol-5-yl)-2,6-naphthyridin-3-amine]

pIC50 (CDK4/CCND3; [1]): < 6.60
pIC50 (CDK1/CCNB1; [2]): < 6.60
pIC50 (CDK6/CCND1; [3]): < 6.60
pIC50 (CDK2/CCNE1; [5]): > 7.60
Compound: CS(=O)(=O)c1ccc(Nc2cc3c(C#Cc4ccc(C#N)cc4C(F)(F)F)nccc3cn2)cc1 [Ex 647, 4-((7-((4-(methylsulfonyl)phenyl)amino)-2,6-naphthyridin-1-yl)ethynyl)-3-(trifluoromethyl)benzonitrile]

The remaining lines, values behind:

Compound: Cc1cc2[nH]ncc2cc1-c1nccc2cnc(Nc3ccc(S(C)(=O)=O)cc3)cc12 [Ex 597, 5-(6-methyl-1H-indazol-5-yl)-N-(4-(methylsulfonyl)phenyl)-2,6-naphthyridin-3-amine]
pIC50 (CDK4/CCND3; [1]): < 6.60
pIC50 (CDK1/CCNB1; [2]): < 6.60
pIC50 (CDK6/CCND1; [3]): < 6.60
pIC50 (CDK2/CCNE1; [4]): 6.60 to 7.60

Compound: CCS(=O)(=O)c1ccc(Nc2cc3c(C#Cc4ccc5c(c4)NC(=O)C5(C)C)nccc3cn2)cc1 [Ex 459, 6-((7-((4-(ethylsulfonyl)phenyl)amino)-2,6-naphthyridin-1-yl)ethynyl)-3,3-dimethylindolin-2-one]
pIC50 (CDK4/CCND3; CDK4/CCND, x = IC50 25-250 nM, read-out: CDK4/CCND IC50 (25-250 nM)): 6.60 to 7.60
pIC50 (CDK1/CCNB1; CDK1/CCNB, x = IC50 25-250 nM, read-out: CDK1/CCNB IC50 (25-250 nM)): 6.60 to 7.60
pIC50 (CDK6/CCND1; [3]): < 6.60
pIC50 (CDK2/CCNE1; [5]): > 7.60

Compound: COc1cc(Nc2cc3c(-c4ccc5c(cnn5CCO)c4C)nccc3cn2)ccc1S(C)(=O)=O [Ex 617, 2-(5-(7-((3-methoxy-4-(methylsulfonyl)phenyl)amino)-2,6-naphthyridin-1-yl)-4-methyl-1H-indazol-1-yl)ethan-1-ol]
pIC50 (CDK4/CCND3; [1]): < 6.60
pIC50 (CDK1/CCNB1; [2]): < 6.60
pIC50 (CDK6/CCND1; [3]): < 6.60
pIC50 (CDK2/CCNE1; [4]): 6.60 to 7.60

Compound: CC1CCCCN1c1nccc2cnc(NC3CCN(S(C)(=O)=O)CC3)cc12 (racemic) [Ex 34, 5-(2-methylpiperidin-1-yl)-N-(1-(methylsulfonyl)piperidin-4-yl)-2,6-naphthyridin-3-amine]
pIC50 (CDK4/CCND3; CDK4/CCND, <25 nM, read-out: CDK4/CCND IC50 <25 nM): > 7.60
pIC50 (CDK1/CCNB1; CDK1/CCNB, 25-250 nM marked x, read-out: CDK1/CCNB IC50 25-250 nM): 6.60 to 7.60
pIC50 (CDK6/CCND1; CDK6/CCND, <25 nM, read-out: CDK6/CCND IC50 <25 nM): > 7.60
pIC50 (CDK2/CCNE1; CDK2/CCNE, <25 nM, read-out: CDK2/CCNE IC50 <25 nM): > 7.60

Compound: CS(=O)(=O)c1ccc(Nc2cc3c(C#Cc4ccc(O)cc4F)nccc3cn2)cc1 [Ex 602, 3-fluoro-4-((7-((4-(methylsulfonyl)phenyl)amino)-2,6-naphthyridin-1-yl)ethynyl)phenol]
pIC50 (CDK4/CCND3; [1]): < 6.60
pIC50 (CDK1/CCNB1; [2]): < 6.60
pIC50 (CDK6/CCND1; [3]): < 6.60
pIC50 (CDK2/CCNE1; [5]): > 7.60

Compound: Cc1ccc(C#Cc2nccc3cnc(Nc4ccc(S(C)(=O)=O)cc4)cc23)c(N)c1 [Ex 570, 5-((2-amino-4-methylphenyl)ethynyl)-N-(4-(methylsulfonyl)phenyl)-2,6-naphthyridin-3-amine]
pIC50 (CDK4/CCND3; [1]): < 6.60
pIC50 (CDK1/CCNB1; [2]): < 6.60
pIC50 (CDK6/CCND1; [3]): < 6.60
pIC50 (CDK2/CCNE1; [5]): > 7.60

Compound: CS(=O)(=O)c1ccc(Nc2cc3c(C#Cc4n[nH]c5c4CCC5)nccc3cn2)cc1 [Ex 531, N-(4-(methylsulfonyl)phenyl)-5-((1,4,5,6-tetrahydrocyclopenta[c]pyrazol-3-yl)ethynyl)-2,6-naphthyridin-3-amine]
pIC50 (CDK4/CCND3; [1]): < 6.60
pIC50 (CDK1/CCNB1; [2]): < 6.60
pIC50 (CDK6/CCND1; [3]): < 6.60
pIC50 (CDK2/CCNE1; [4]): 6.60 to 7.60

Compound: CCC1(CC)C(=O)Nc2cc(C#Cc3nccc4cnc(Nc5ccc(S(=O)(=O)C6CCC6)cc5)cc34)ccc21 [Ex 409, 6-((7-((4-(cyclobutylsulfonyl)phenyl)amino)-2,6-naphthyridin-1-yl)ethynyl)-3,3-diethylindolin-2-one]
pIC50 (CDK4/CCND3; [1]): < 6.60
pIC50 (CDK1/CCNB1; [2]): < 6.60
pIC50 (CDK6/CCND1; [3]): < 6.60
pIC50 (CDK2/CCNE1; [5]): > 7.60

Compound: CS(=O)(=O)c1ccc(Nc2cc3c(C#Cc4c[nH]c5nc(Cl)ncc45)nccc3cn2)cc1 [Ex 520, 5-((2-chloro-7H-pyrrolo[2,3-d]pyrimidin-5-yl)ethynyl)-N-(4-(methylsulfonyl)phenyl)-2,6-naphthyridin-3-amine]
pIC50 (CDK4/CCND3; [1]): < 6.60
pIC50 (CDK1/CCNB1; [2]): < 6.60
pIC50 (CDK6/CCND1; [3]): < 6.60
pIC50 (CDK2/CCNE1; [4]): 6.60 to 7.60

Compound: CS(=O)(=O)c1ccc(Nc2cc3c(ccnc3[C@H]3CC[C@H](C(=O)N4CCSCC4)CC3)cn2)cc1 [Ex 228, ((1r,4r)-4-(7-((4-(methylsulfonyl)phenyl)amino)-2,6-naphthyridin-1-yl)cyclohexyl)(thiomorpholino)methanone]
pIC50 (CDK4/CCND3; CDK4/CCND, >250 nM marked x, read-out: CDK4/CCND IC50 >250 nM): < 6.60
pIC50 (CDK1/CCNB1; CDK1/CCNB, >250 nM marked x, read-out: CDK1/CCNB IC50 >250 nM): < 6.60
pIC50 (CDK6/CCND1; CDK6/CCND, >250 nM marked x, read-out: CDK6/CCND IC50 >250 nM): < 6.60
pIC50 (CDK2/CCNE1; CDK2/CCNE, >250 nM marked x, read-out: CDK2/CCNE IC50 >250 nM): < 6.60
